Measurements reported in patent publication US12410162B2, “Pyrazole acylhydrazone containing trifluoromethylthiadiazole units, preparation method and use thereof” (NANTONG UNIVERSITY, priority 2020, dated 2025).

Test system: Mycosphaerella melonis
Test: Screening of bactericidal activity against Mycosphaerella melonis (toxic medium method)
Type: cell-based
Details: test concentration 200 μg/mL, 24-26° C. in the dark
Method: Screening of the Bactericidal Activity of the Samples Against Mycosphaerella melonis The toxic medium method was used to determine the antibacterial activity of the target against Mycosphaerella melonis. First the drug solution was added to the culture medium, then the bacterial cake was placed on the culture medium, the petri dish was placed in a 24-26° C. incubator in the dark, and then cultured at a constant temperature. Then according to the growth rate of pathogenic bacteria, when the diameter of the control was to about 8 cm, the antibacterial rate % was calculated. The test concentration was 200 μg/mL (the drug solution with other concentrations was obtained by diluting the drug solution with the concentration of 200 μg/mL).

Structure (SMILES) | Mycosphaerella melonis (inhibition ratio, %)
Cc1nn(C)c(Oc2cccc(Cl)c2)c1C=NNC(=O)c1snnc1C(F)(F)F [Ia] | 100%
Cc1nn(C)c(Oc2cccc(Br)c2)c1C=NNC(=O)c1snnc1C(F)(F)F [Ib] | 100%
Cc1nn(C)c(Oc2ccc(F)cc2F)c1C=NNC(=O)c1snnc1C(F)(F)F [Ic] | 90%
Cc1nn(C)c(Oc2ccc(Cl)cc2Cl)c1C=NNC(=O)c1snnc1C(F)(F)F [Id] | 100%
